{"source": "patent US9486464B2", "about": "“Composition and method of manufacture” (Persavita Ltd, priority 2010, dated 2016)", "key": {"[1]": {"tested_on": "bovine and primate retinal cell cultures", "details": "160 μM crocin; cited from earlier work"}, "[2]": {"tested_on": "primary human RPE cells", "assay": "Light-induced phototoxicity in primary human RPE cells, viability by MTT assay", "assay_type": "cell-based", "details": "pre-treatment 100 μM crocin, 1 μM resveratrol or both; 300 mW/cm^2 for 60 min; FIG. 3", "description": "(§1) When implementing the method, concentrations of 10 μM to 500 μM crocin and 0.1 μM to 25 μM resveratrol are beneficially employed for toxicity characterization. Moreover, concentrations of 100 μM crocin and 1 μM resveratrol are beneficially employed to investigate synergistic effects against light-induced phototoxicity with a final DMSO concentration of 0.1%. Beneficially, DMSO is added to cultures at 0.1% (v/v) as a solvent control.\nFor preparing the cell culture medium, primary RPE cells from three human donors (obtained 3 to 10 hours postmortem) without any history of eye disease were obtained from the Eye Bank of Ludwig Maximilian University. Dulbecco-modified Eagle medium (DMEM, obtainable from Biochrom, Berlin, Germany) supplemented with 10% fetal calf serum (FCS, obtainable from Biochrom, Berlin, Germany) was used as the cell culture medium when undertaking the experimental tests. […]\nThe aforesaid illumination is beneficially obtained from a spot-light source (LC-8, obtainable from Hamamatsu Photonics, Japan), although other illumination sources are optionally employed. […] For obtaining accurate experimental measurements, the illumination power and spectral range of illumination employed for the tests are beneficially measured using a spectrometer (C10083MD, obtainable from Hamamatsu Photonics), although other measuring instruments may be optionally employed. […]"}, "[3]": {"tested_on": "primary RPE cells", "assay": "Toxicity testing on RPE cell cultures (MTT assay)", "details": "24 hours of exposure; crocin 10 μM to 500 μM, resveratrol 0.1 μM to 25 μM", "description": "as §1\nDulbecco-modified Eagle medium (DMEM, obtainable from Biochrom, Berlin, Germany) supplemented with 10% fetal calf serum (FCS, obtainable from Biochrom, Berlin, Germany) was used as the cell culture medium when undertaking the experimental tests.\nFor determining cell survival rate after the aforesaid illumination, the tetrazolium dye-reduction assay (MTT); 3-[4,5-methylthiazol-2-yl]-2,2-diphenyl tetrazolium bromide) is beneficially used for determining the cell survival rate after aforesaid illumination has been applied. […] The serum-free cell culture medium is beneficially removed, the cells then washed with PBS, and thereafter 1000 μL of MTT solution (1.5 mL MTT stock, 2 mg/mL in PBS, together with 28.5 mL MEM) added to each well in the cell culture. […] Thereafter, absorption is beneficially measured by employing a scanning multiwell spectrophotometer operating at an interrogating radiation wavelength of 550 nm (apparatus obtainable from Molecular Probes). […]"}, "[4]": {"tested_on": "mammalian retina", "details": "after exposure to damaging light; cited from earlier work"}, "[5]": {"tested_on": "human RPE cells", "details": "cited from earlier work"}, "[6]": {"tested_on": "retina", "details": "oral consumption in mice; cited from earlier work"}, "[7]": {"tested_on": "mouse retina", "details": "in vitro and in vivo, sirtuin-independent pathway; cited from earlier work"}, "[8]": {"tested_on": "vascular endothelial cells", "details": "cited from earlier work"}}}
{"smiles": "CC(/C=C/C=C(\\C)C(=O)O[C@@H]1O[C@H](CO[C@@H]2O[C@H](CO)[C@@H](O)[C@H](O)[C@H]2O)[C@@H](O)[C@H](O)[C@H]1O)=C\\C=C\\C=C(C)\\C=C\\C=C(/C)C(=O)O[C@@H]1O[C@H](CO[C@@H]2O[C@H](CO)[C@@H](O)[C@H](O)[C@H]2O)[C@@H](O)[C@H](O)[C@H]1O", "note": "[crocin]", "values": [{"measurement": "photoreceptors surviving light exposure", "setting": "[1]", "value": "more than 90%"}, {"measurement": "decrease in viability of RPE cells after light exposure compared with cells not treated", "setting": "[2]", "value": "significantly smaller decrease in viability"}, {"measurement": "toxic effects in respect of RPE cell cultures", "setting": "[3]", "value": "no significant toxic effects"}]}
{"smiles": "CC1=C(/C=C/C(C)=C/C=C/C(C)=C/C=C/C=C(C)/C=C/C=C(C)/C=C/C2=C(C)CCCC2(C)C)C(C)(C)CCC1", "note": "[beta-carotene]", "values": [{"measurement": "retinal morphology and function", "setting": "[4]", "value": "ineffective for maintaining retinal function, and only improved morphology"}]}
{"smiles": "Oc1ccc(/C=C/c2cc(O)cc(O)c2)cc1", "note": "[resveratrol, 3,5,4″-trihydroxystilbene]", "values": [{"measurement": "decrease in viability of RPE cells after light exposure compared with cells not treated", "setting": "[2]", "value": "significantly smaller decrease in viability"}, {"measurement": "effect on acrolein-induced oxidative stress", "setting": "[5]", "value": "protective effects"}, {"measurement": "retinal degradation related to light damage", "setting": "[6]", "value": "capable of preventing retinal degradation"}, {"measurement": "pathological angiogenesis", "setting": "[7]", "value": "inhibit pathological angiogenesis"}, {"measurement": "proliferation and migration of vascular endothelial cells", "setting": "[8]", "value": "inhibiting proliferation and migration"}]}
